Values quoted from earlier work as cited in patent publication US11065250B2, “Solid dosage forms of palbociclib” (PFIZER INC., priority 2015, dated 2021).
Where two headings read alike, the source gives them in different places.

Experiments:
[1] = low pH (2.1-4.5)

- solubility in words [1]: water soluble
- pKa (pyridine nitrogen): ~4.1
- pKa (secondary piperazine nitrogen): approximately 7.3
- pKa (pyridine nitrogen) (listed as palbociclib): approximately 4.1
- pKa (secondary piperazine nitrogen) (listed as palbociclib): ~7.3
Compound: CC(=O)c1c(C)c2cnc(Nc3ccc(N4CCNCC4)cn3)nc2n(C2CCCC2)c1=O [Palbociclib, 6-acetyl-8-cyclopentyl-5-methyl-2-(5-piperazin-1-yl-pyridin-2-ylamino)-8H-pyrido[2,3-d]pyrimidin-7-one]
